Experimental data taken from PubChem BioAssay AID248 (DTP/NCI, 2004).
Values joined by “and” are separate entries in the source; they are usually repeats but may differ in a detail not shown here. Identical values can stand only once. Toxic doses and inconclusive results are not listed. No stated cut-off is given here; in the data, active means T/C of 150% or more; inactive means T/C below 125%.

Test system: L1210 leukemia ip in BDF1 mice, survival T/C
Test: NCI In Vivo Anticancer Drug Screen. Data for tumor model L1210 Leukemia (intraperitoneal) in B6D2F1 (BDF1) mice
Details: endpoint: mean survival time, higher = longer survival
Experimental: The antitumor activity of compounds was measured in mice bearing transplantable tumors. Survival or tumor size were measured and the results are expressed as the measurement made in the treated group (T) divided by the measurement made in the vehicle treated control group (C). The tumor model used in this assay is L1210 Leukemia (intraperitoneal) in B6D2F1 (BDF1) mice

[1] = dose: 50.0 mg/kg/injection, schedule: Q01DX001 (ip), vehicle: saline
[2] = dose: 100.0 mg/kg/injection, schedule: Q01DX001 (ip), vehicle: saline
[3] = dose: 200.0 mg/kg/injection, schedule: Q01DX001 (ip), vehicle: saline
[4] = dose: 400.0 mg/kg/injection, schedule: Q01DX001 (ip), vehicle: saline
[5] = dose: 100.0 mg/kg/injection, schedule: Q01DX001 (ip), vehicle: saline with Tween-80
[6] = dose: 100.0 mg/kg/injection, schedule: Q01DX009 (ip), vehicle: saline with Tween-80
[7] = dose: 200.0 mg/kg/injection, schedule: Q01DX001 (ip), vehicle: saline with Tween-80
[8] = dose: 200.0 mg/kg/injection, schedule: Q01DX009 (ip), vehicle: saline with Tween-80
[9] = dose: 400.0 mg/kg/injection, schedule: Q01DX001 (ip), vehicle: saline with Tween-80
[10] = dose: 400.0 mg/kg/injection, schedule: Q01DX009 (ip), vehicle: saline with Tween-80
[11] = dose: 100.0 mg/kg/injection, schedule: Q04DX002 (ip), vehicle: saline
[12] = dose: 200.0 mg/kg/injection, schedule: Q04DX002 (ip), vehicle: saline
[13] = dose: 100.0 mg/kg/injection, schedule: Q01DX009 (ip), vehicle: Klucel (hydroxypropylcellulose) (HPC)
[14] = dose: 100.0 mg/kg/injection, schedule: Q04DX003 (ip), vehicle: Klucel (hydroxypropylcellulose) (HPC)
[15] = dose: 200.0 mg/kg/injection, schedule: Q04DX003 (ip), vehicle: Klucel (hydroxypropylcellulose) (HPC)
[16] = dose: 100.0 mg/kg/injection, schedule: Q01DX001 (ip), vehicle: carboxymethylcellulose (CMC)
[17] = dose: 200.0 mg/kg/injection, schedule: Q01DX001 (ip), vehicle: carboxymethylcellulose (CMC)
[18] = dose: 400.0 mg/kg/injection, schedule: Q01DX001 (ip), vehicle: carboxymethylcellulose (CMC)
[19] = dose: 100.0 mg/kg/injection, schedule: Q01DX001 (ip), vehicle: Klucel (hydroxypropylcellulose) (HPC)
[20] = dose: 200.0 mg/kg/injection, schedule: Q01DX001 (ip), vehicle: Klucel (hydroxypropylcellulose) (HPC)
[21] = dose: 400.0 mg/kg/injection, schedule: Q04DX003 (ip), vehicle: Klucel (hydroxypropylcellulose) (HPC)

Measured: T/C

CC(C)N(N=O)C(C)C
inactive: [1] 104 % of control | [2] 104 % of control | [3] 102 % of control | [4] 98 % of control

COc1ccc(Cl)cc1NC(=O)Oc1ccccc1C(C)C
inactive: [5] 96 % of control | [6] 96 % of control | dose: 100.0 mg/kg/injection, schedule: Q04DX002 (ip), vehicle: saline with Tween-80 95 % of control and 106 % of control | [7] 102 % of control | [8] 98 % of control | dose: 200.0 mg/kg/injection, schedule: Q04DX002 (ip), vehicle: saline with Tween-80 92 % of control and 109 % of control | [9] 87 % of control | [10] 89 % of control | dose: 400.0 mg/kg/injection, schedule: Q04DX002 (ip), vehicle: saline with Tween-80 95 % of control and 91 % of control

Cc1cccc2c(=O)c(C(=O)O)cn(C)c12
inactive: dose: 50.0 mg/kg/injection, schedule: Q04DX002 (ip), vehicle: saline 107 % of control | [11] 107 % of control | [12] 107 % of control

O=[N+]([O-])c1cccc(S(=O)(=O)OCn2ncc3ccc([N+](=O)[O-])cc32)c1
inactive: dose: 5.0 mg/kg/injection, schedule: Q01DX001 (ip), vehicle: saline 94 % of control | dose: 10.0 mg/kg/injection, schedule: Q01DX001 (ip), vehicle: saline 100 % of control | dose: 20.0 mg/kg/injection, schedule: Q01DX001 (ip), vehicle: saline 100 % of control | dose: 40.0 mg/kg/injection, schedule: Q01DX001 (ip), vehicle: saline 97 % of control

FC1(F)C=C(c2ccccc2)C1(Cl)Cl
inactive: dose: 25.0 mg/kg/injection, schedule: Q01DX009 (ip), vehicle: Klucel (hydroxypropylcellulose) (HPC) 102 % of control | dose: 50.0 mg/kg/injection, schedule: Q01DX009 (ip), vehicle: Klucel (hydroxypropylcellulose) (HPC) 100 % of control | [13] 92 % of control and 98 % of control | [14] 107 % of control | [15] 113 % of control

O/N=C(\c1ccccc1)C(O)c1ccccc1 (centres undefined)
inactive: dose: 50.0 mg/kg/injection, schedule: Q01DX001 (ip), vehicle: carboxymethylcellulose (CMC) 113 % of control | [16] 105 % of control | [17] 105 % of control | [18] 102 % of control

Cc1cc(N(CCOS(C)(=O)=O)CCOS(C)(=O)=O)ccc1N=O
inactive: dose: 62.5 micrograms/kg/injection, schedule: Q01DX010 (ip), vehicle: saline 121 % of control

CC1CC(=O)C2CC(Cl)CCC2(C)C1C (centres undefined)
inactive: dose: 100.0 mg/kg/injection, schedule: Q04DX003 (ip), vehicle: saline with Tween-80 101 % of control | dose: 150.0 mg/kg/injection, schedule: Q01DX009 (ip), vehicle: Klucel (hydroxypropylcellulose) (HPC) 91 % of control | dose: 225.0 mg/kg/injection, schedule: Q01DX009 (ip), vehicle: Klucel (hydroxypropylcellulose) (HPC) 97 % of control

O=C(O)c1cc([N+](=O)[O-])cc(P(=O)(O)O)c1
inactive: dose: 12.5 mg/kg/injection, schedule: Q01DX001 (ip), vehicle: saline 86 % of control | dose: 12.5 mg/kg/injection, schedule: Q04DX003 (ip), vehicle: saline 96 % of control | dose: 25.0 mg/kg/injection, schedule: Q01DX001 (ip), vehicle: saline 99 % of control | dose: 25.0 mg/kg/injection, schedule: Q04DX003 (ip), vehicle: saline 89 % of control | [1] 87 % of control | dose: 50.0 mg/kg/injection, schedule: Q04DX003 (ip), vehicle: saline 94 % of control | dose: 75.0 mg/kg/injection, schedule: Q01DX009 (ip), vehicle: saline 100 % of control | dose: 115.0 mg/kg/injection, schedule: Q01DX009 (ip), vehicle: saline 92 % of control

CCOC(=S)c1cccc(S(=O)(=O)Nc2ccc(OCC)cc2)c1
inactive: [5] 105 % of control | [7] 105 % of control | [9] 108 % of control

CCCC(=O)N1CCCC(C)C1 (centres undefined)
inactive: [11] 111 % of control | [12] 107 % of control | dose: 400.0 mg/kg/injection, schedule: Q04DX002 (ip), vehicle: saline 104 % of control

CCOC(=O)c1c(OC(C)=O)cc(C)nc1OC(C)=O
inactive: [2] 100 % of control | [3] 100 % of control | [4] 111 % of control

CC1(C)C2CCC1(C)C(OCCCN=C(N)CSS(=O)(=O)O)C2 (centres undefined)
inactive: dose: 1.5 mg/kg/injection, schedule: Q04DX002 (ip), vehicle: Klucel (hydroxypropylcellulose) (HPC) 113 % of control | dose: 3.0 mg/kg/injection, schedule: Q04DX002 (ip), vehicle: Klucel (hydroxypropylcellulose) (HPC) 100 % of control | dose: 6.0 mg/kg/injection, schedule: Q04DX002 (ip), vehicle: Klucel (hydroxypropylcellulose) (HPC) 91 % of control

COc1ccc(-c2cc(C(=O)O)c3cccc(C(F)(F)F)c3n2)cc1
inactive: dose: 100.0 mg/kg/injection, schedule: Q04DX003 (ip), vehicle: saline 90 % of control

CN(C)c1ccc(/C=N/NC(=O)C(O)(c2ccccc2)c2ccccc2)cc1
inactive: [6] 98 % of control | [8] 98 % of control | [10] 88 % of control

O=C(/C=C\C=C\c1ccccc1)c1ccc([N+](=O)[O-])cc1
inactive: [16] 92 % of control and 89 % of control | dose: 100.0 mg/kg/injection, schedule: Q01DX009 (ip), vehicle: carboxymethylcellulose (CMC) 100 % of control and 89 % of control | dose: 100.0 mg/kg/injection, schedule: Q04DX002 (ip), vehicle: gum acacia 95 % of control and 99 % of control | dose: 100.0 mg/kg/injection, schedule: Q04DX003 (ip), vehicle: carboxymethylcellulose (CMC) 93 % of control and 86 % of control | [17] 95 % of control and 89 % of control | dose: 200.0 mg/kg/injection, schedule: Q01DX009 (ip), vehicle: carboxymethylcellulose (CMC) 90 % of control | dose: 200.0 mg/kg/injection, schedule: Q04DX002 (ip), vehicle: gum acacia 101 % of control and 89 % of control | dose: 200.0 mg/kg/injection, schedule: Q04DX003 (ip), vehicle: carboxymethylcellulose (CMC) 86 % of control and 90 % of control | [18] 92 % of control and 89 % of control | dose: 400.0 mg/kg/injection, schedule: Q01DX009 (ip), vehicle: carboxymethylcellulose (CMC) 96 % of control and 97 % of control | dose: 400.0 mg/kg/injection, schedule: Q04DX002 (ip), vehicle: gum acacia 92 % of control and 89 % of control | dose: 400.0 mg/kg/injection, schedule: Q04DX003 (ip), vehicle: carboxymethylcellulose (CMC) 90 % of control

Nc1nc2ncc(CNc3ccc(C(=O)NC(CCC(=O)O)C(=O)O)cc3)nc2c(=O)n1N (centres undefined)
inactive: [19] 98 % of control | [20] 101 % of control | dose: 400.0 mg/kg/injection, schedule: Q01DX001 (ip), vehicle: Klucel (hydroxypropylcellulose) (HPC) 98 % of control

CCCCCCCCCCCCC/C=C/CC(CC(=O)O)C(=O)Nc1cccc2c[n+](CC(=O)c3ccc(NC(C)=O)cc3)ccc12 (centres undefined)
inactive: [14] 111 % of control | [15] 101 % of control | [21] 105 % of control

CCOC(=O)c1ccc(C(=O)OCC)c(C#N)n1
inactive: [13] 102 % of control | [14] 100 % of control | dose: 200.0 mg/kg/injection, schedule: Q01DX009 (ip), vehicle: Klucel (hydroxypropylcellulose) (HPC) 97 % of control | [15] 93 % of control | [21] 95 % of control

Oc1c(C(c2ccccc2)N2CCCC2)ccc2ccccc12 (centres undefined)
inactive: dose: 75.0 mg/kg/injection, schedule: Q04DX003 (ip), vehicle: saline with Tween-80 100 % of control | dose: 150.0 mg/kg/injection, schedule: Q04DX003 (ip), vehicle: saline with Tween-80 92 % of control | dose: 300.0 mg/kg/injection, schedule: Q04DX003 (ip), vehicle: saline with Tween-80 96 % of control

O=C1C2CCN(CC2)C1CNC1(c2ccccc2)CCCCC1 (centres undefined)
inactive: dose: 50.0 mg/kg/injection, schedule: Q01DX001 (ip), vehicle: Klucel (hydroxypropylcellulose) (HPC) 98 % of control | [19] 92 % of control | [20] 92 % of control

CC(=O)C(C(C)=O)c1cc(NS(=O)(=O)c2ccccc2)ccc1O
inactive: [5] 100 % of control | [7] 104 % of control | [9] 89 % of control
